Values of other authors, collected in US20050244491A1, “Fast disintegrating meloxicam tablet” (Boehringer Ingelheim International GmbH, priority 2001, published 2005).

Details: in acidic or neutral medium

solubility: low
Compound: Cc1cnc(NC(=O)C2=C(O)c3ccccc3S(=O)(=O)N2C)s1 [Meloxicam, 2H-1,2-benzothiazine-3-carboxamide, 4-hydroxy-2-methyl-N-(5-methyl-2-thiazolyl)-1,1-dioxide]
